{
  "source": "patent US8912186B2",
  "about": "“Allosteric protein kinase modulators” (Universitaet des Saarlandes, priority 2008, dated 2014)",
  "key": {"[1]": {"target": "T1, PDK1 (Homo sapiens, UniProt O15530)", "T1 construct": "GST", "T1 sequence (O15530 1-556)": "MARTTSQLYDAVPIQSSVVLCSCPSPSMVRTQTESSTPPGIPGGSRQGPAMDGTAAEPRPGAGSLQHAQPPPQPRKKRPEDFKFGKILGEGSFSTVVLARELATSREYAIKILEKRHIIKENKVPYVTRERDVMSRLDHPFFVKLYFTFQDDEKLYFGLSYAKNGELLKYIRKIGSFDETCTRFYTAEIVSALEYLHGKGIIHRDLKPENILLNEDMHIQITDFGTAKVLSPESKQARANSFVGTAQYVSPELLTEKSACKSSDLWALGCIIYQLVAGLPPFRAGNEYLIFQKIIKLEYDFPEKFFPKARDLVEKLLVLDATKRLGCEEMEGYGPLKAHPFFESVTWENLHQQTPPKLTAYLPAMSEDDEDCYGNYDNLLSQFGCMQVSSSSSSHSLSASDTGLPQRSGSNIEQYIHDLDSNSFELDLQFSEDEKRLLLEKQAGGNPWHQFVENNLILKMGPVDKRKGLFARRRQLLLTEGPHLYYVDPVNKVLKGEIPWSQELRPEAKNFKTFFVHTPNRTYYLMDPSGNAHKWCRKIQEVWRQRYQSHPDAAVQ", "experiment": "cell-free kinase activity assay (ATPgamma[32P], T308tide substrate)", "assay_type": "biochemical", "conditions": "for AC50: concentration of the compound required to activate half maximally; for AC50 / max. activation of PDK1 (fold): n.e.: no effect; for max. activation of PDK1 (fold): maximum activation achievable, compared to the basal activity of PDK1", "procedure,_shortened": "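Radiometric ATPγ[32P] kinase assay; for PDK1, 200 ng enzyme with 1 mM T308tide substrate, run at room temperature for 30 min. Reaction started with ATP-Mg and stopped with phosphoric acid. Incorporated radioactivity measured after spotting on phosphocellulose paper and washing.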"}, "[2]": {"test_system": "PC3 prostate carcinoma cells", "experiment": "MTT assay, number of living cells", "assay_type": "cell-based", "conditions": "36 h; for number of PC3 cells as compared to the DMSO-treated control (proliferation / cell death): serum starved, IGF-I, 5% FCS", "protocol": "Cells were serum starved overnight and stimulated or not with 50 μg/ml IGF-I, then test compounds and 5% FCS were added, and cells grown for 36 h. A standard MTT assay was then performed to measure the number of living cells.\nTo measure the potency of selected compounds to inhibit growth of a cancer cell line, the widely established MTT assay was used. The assay principle relies on the formation of a purple formazan dye from MTT which has been added to the cultured cells due to mitochondrial reductase activity in intact cells. After 3-4 hours of cell incubation with MTT, formazan crystals develop in living and early apoptotic cells but not in dead cells. MTT is suitable for measuring cell proliferation and cell viability.\nThus the cell's viability critically relies on high activities of this pathway but on the other hand it requires highly efficient inhibitors to hit the cells."}, "[3]": {"target": "T2, PDK1 (Homo sapiens, UniProt O15530)", "T2 construct": "maximal fluorescence intensity of TNP-ATP obtained with addition of 15 μM PDK1 CD", "T2 sequence (O15530 82-342 limits assumed)": "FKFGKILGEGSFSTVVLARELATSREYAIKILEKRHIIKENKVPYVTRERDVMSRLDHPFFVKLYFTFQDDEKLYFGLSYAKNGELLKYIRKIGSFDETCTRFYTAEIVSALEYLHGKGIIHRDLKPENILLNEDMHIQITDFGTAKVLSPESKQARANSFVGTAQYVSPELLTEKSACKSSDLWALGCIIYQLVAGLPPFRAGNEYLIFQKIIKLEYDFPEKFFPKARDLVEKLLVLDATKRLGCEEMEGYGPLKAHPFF", "experiment": "TNP-ATP fluorescence probe of the ATP binding site conformation", "conditions": "for TNP-ATP fluorescence intensity in the presence of PDK1: addition to the TNP-ATP-PDK1 mixture", "protocol": "In order to shed further light on the conformational change induced by the binding of small compounds to the PIF-binding pocket of PDK1, we developed a method to probe the ATP binding site conformation in solution with the use of a fluorescent ATP analogue, trinitrophenyl-ATP (TNP-ATP; FIG. 5A). […] Since the decrease in fluorescence intensity was also measured with phosphorylated HM polypeptides and PIFtide, it is likely that the ATP-binding site conformational change measured was actually related to the equivalent events that activate PDK1 by low molecular weight compounds and HM-polypeptides.\n(A) TNP-ATP formulae. (B, C and D) Fluorescence intensities are expressed as % of the maximal fluorescence intensity of TNP-ATP obtained with addition of 15 μM PDK1 CD. (B) Effect of PDK1 addition on TNP-ATP fluorescence. (C) Addition of PS08 to the TNP-ATP-PDK1 mixture triggered a concentration dependent decrease of the fluorescence intensity. At 167 μM PS08 (=PS-T-8), the maximum fluorescence intensity was 60%, similar to TNP-ATP alone. (D) Effect of 167 μM PS133, the isomer compound PS08 to the TNP-ATP-PDK1."}, "[4]": {"target": "T3, PKCζ (Homo sapiens, UniProt Q05513)", "T3 sequence (Q05513 1-592)": "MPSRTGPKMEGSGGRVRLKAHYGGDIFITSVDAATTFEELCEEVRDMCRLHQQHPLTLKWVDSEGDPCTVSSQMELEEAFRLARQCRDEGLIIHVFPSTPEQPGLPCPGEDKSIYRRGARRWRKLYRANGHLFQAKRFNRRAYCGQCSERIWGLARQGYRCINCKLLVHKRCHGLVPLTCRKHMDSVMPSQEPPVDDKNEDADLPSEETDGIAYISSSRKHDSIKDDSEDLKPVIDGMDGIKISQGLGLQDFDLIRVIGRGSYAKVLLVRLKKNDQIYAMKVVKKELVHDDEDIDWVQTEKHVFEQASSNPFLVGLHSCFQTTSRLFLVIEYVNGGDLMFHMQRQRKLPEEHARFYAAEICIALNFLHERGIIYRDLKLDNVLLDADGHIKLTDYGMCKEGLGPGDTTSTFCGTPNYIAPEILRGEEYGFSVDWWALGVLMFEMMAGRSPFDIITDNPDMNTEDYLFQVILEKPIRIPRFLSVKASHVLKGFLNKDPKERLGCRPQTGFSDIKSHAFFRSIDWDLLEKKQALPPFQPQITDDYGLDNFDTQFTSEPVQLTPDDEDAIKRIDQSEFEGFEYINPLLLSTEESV", "experiment": "cell-free kinase activity assay", "assay_type": "biochemical", "conditions": "DMSO control set 100%, read-out: percent of catalytic activity of the Kinase in the presence of compound as compared to the solvent control (DMSO): PKCζ"}, "[5]": {"target": "T4, SGK (Homo sapiens, UniProt O00141)", "T4 sequence (O00141 1-431)": "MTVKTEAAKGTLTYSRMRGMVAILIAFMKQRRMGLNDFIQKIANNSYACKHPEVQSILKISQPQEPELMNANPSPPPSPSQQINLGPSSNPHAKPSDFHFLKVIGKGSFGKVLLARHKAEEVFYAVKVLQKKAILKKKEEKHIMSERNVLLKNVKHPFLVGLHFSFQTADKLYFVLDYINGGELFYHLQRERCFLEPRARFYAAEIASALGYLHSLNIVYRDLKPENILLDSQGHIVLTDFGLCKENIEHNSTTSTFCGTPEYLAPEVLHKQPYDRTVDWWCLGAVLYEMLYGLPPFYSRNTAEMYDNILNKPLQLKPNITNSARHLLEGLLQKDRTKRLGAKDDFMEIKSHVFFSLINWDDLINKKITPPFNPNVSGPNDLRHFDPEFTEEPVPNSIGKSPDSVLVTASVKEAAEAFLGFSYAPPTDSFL", "experiment": "cell-free kinase activity assay", "assay_type": "biochemical", "conditions": "DMSO control set 100%"}, "[6]": {"target": "PRK2 (Homo sapiens, UniProt Q16513)", "sequence (Q16513 whole entry, species assumed)": "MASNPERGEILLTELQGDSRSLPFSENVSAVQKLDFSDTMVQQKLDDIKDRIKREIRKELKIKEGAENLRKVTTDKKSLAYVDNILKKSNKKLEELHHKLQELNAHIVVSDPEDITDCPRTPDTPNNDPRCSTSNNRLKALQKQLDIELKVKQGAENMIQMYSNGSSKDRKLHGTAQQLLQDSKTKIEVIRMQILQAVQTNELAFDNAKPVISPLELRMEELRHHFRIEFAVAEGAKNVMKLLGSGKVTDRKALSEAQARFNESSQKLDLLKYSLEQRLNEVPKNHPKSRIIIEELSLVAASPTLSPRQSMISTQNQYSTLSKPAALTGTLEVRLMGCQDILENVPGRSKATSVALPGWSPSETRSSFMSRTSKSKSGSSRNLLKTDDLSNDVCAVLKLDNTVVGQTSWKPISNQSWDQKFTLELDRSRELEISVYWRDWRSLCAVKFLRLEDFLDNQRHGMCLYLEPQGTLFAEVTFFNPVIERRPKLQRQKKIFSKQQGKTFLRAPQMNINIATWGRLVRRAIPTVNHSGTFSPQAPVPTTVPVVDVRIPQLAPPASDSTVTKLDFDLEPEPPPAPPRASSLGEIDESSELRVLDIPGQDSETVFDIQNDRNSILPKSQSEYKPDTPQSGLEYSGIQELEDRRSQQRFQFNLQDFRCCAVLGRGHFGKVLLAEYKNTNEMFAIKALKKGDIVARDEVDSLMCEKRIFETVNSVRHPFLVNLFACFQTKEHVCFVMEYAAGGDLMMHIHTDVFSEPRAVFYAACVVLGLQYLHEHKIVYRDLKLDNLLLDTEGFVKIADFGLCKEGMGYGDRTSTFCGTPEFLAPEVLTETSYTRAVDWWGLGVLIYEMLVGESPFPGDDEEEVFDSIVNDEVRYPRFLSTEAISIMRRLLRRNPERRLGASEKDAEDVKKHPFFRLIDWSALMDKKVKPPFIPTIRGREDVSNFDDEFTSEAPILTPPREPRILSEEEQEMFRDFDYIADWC", "experiment": "cell-free kinase activity assay", "assay_type": "biochemical", "conditions": "DMSO control set 100%"}, "[7]": {"target": "S6K (Homo sapiens, UniProt P23443)", "sequence (P23443 whole entry)": "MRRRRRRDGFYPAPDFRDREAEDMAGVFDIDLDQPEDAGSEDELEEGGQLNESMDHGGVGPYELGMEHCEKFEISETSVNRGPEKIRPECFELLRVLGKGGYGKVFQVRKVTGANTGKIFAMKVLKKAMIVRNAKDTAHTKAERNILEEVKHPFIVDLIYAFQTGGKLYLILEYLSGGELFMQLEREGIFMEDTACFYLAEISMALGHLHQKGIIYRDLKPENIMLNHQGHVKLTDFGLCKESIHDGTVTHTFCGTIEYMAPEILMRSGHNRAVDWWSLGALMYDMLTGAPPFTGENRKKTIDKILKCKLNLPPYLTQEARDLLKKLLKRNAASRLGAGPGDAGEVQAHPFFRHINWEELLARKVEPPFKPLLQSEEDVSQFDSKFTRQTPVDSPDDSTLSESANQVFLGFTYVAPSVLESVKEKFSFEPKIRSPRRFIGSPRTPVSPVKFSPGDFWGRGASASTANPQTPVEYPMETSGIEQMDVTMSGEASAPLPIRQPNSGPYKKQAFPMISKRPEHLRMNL", "experiment": "cell-free kinase activity assay", "assay_type": "biochemical", "conditions": "DMSO control set 100%"}, "[8]": {"target": "PKBβ (Homo sapiens, UniProt P31751)", "sequence (P31751 whole entry, species assumed)": "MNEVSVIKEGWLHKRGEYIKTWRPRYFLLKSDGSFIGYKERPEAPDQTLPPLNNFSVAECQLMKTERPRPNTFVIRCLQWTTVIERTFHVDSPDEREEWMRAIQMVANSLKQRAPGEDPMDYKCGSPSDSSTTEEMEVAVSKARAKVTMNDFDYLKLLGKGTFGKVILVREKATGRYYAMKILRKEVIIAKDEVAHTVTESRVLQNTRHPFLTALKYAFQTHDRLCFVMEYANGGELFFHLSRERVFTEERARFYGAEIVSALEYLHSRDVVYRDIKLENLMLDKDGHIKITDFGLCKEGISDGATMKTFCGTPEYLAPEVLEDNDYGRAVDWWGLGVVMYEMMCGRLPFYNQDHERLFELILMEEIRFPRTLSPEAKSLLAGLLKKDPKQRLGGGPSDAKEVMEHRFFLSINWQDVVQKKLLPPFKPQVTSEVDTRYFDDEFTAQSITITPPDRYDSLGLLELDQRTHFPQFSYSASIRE", "experiment": "cell-free kinase activity assay", "assay_type": "biochemical", "conditions": "DMSO control set 100%"}, "[9]": {"target": "PKA (Homo sapiens, UniProt P17612)", "experiment": "cell-free kinase activity assay", "assay_type": "biochemical", "conditions": "DMSO control set 100%"}},
  "data": [
    {"smiles": "O=C(O)/C=C(/CSc1ccc(Cl)cc1)c1ccccc1", "note": "[PS 99, (E)-4-(4-Chlorophenylthio)-3-phenylbut-2-enoic acid]", "values": [
      {"measurement": "AC50", "setting": "[1]", "value": 22.8, "unit": "µM"},
      {"measurement": "max. activation of PDK1 (fold)", "setting": "[1]", "value": 2.6, "unit": "fold"},
      {"measurement": "concentration at which effects were detectable", "setting": "[2]; PC3 cells", "value": "10 to 20", "unit": "µM"},
      {"measurement": "number of PC3 cells as compared to the DMSO-treated control (proliferation / cell death)", "setting": "[2]", "value": "can inhibit the proliferation of/or induce cell death of cancer cells"},
      {"measurement": "number of PC3 cells as compared to the DMSO-treated control (proliferation / cell death)", "setting": "[2]; listed as PS99", "value": "significantly reduced"}
    ]},
    {"smiles": "O=C(O)/C=C(\\CCc1ccc(Br)cc1F)c1ccccc1", "note": "[PS 133, (E)-5-(4-Bromo-2-fluorophenyl)-3-phenylpent-2-enoic acid]", "values": [
      {"measurement": "TNP-ATP fluorescence intensity in the presence of PDK1", "setting": "[3]", "value": "did not affect"}
    ]},
    {"smiles": "O=C(O)/C=C(/CCc1ccc(C(F)(F)F)cc1)c1ccccc1", "note": "[PS-T5, (Z)-3-Phenyl-5-[4-(trifluoromethyl)phenyl]pent-2-enoic acid]", "values": [
      {"measurement": "activity at 50 µM", "setting": "[1]; 50 μM compound, DMSO control set 100%, read-out: percent of catalytic activity of the Kinase in the presence of compound as compared to the solvent control (DMSO): PDK1", "value": "> 250", "unit": "%"},
      {"measurement": "activity at 200 µM", "setting": "[1]; 200 μM compound, DMSO control set 100%, read-out: percent of catalytic activity of the Kinase in the presence of compound as compared to the solvent control (DMSO): PDK1", "value": "> 250", "unit": "%"},
      {"measurement": "AC50", "setting": "[1]", "value": 13.8, "unit": "µM"},
      {"measurement": "max. activation of PDK1 (fold)", "setting": "[1]", "value": 4.7, "unit": "fold"},
      {"measurement": "remaining activity at 50 µM", "setting": "[4]; 50 μM compound", "value": "~0", "unit": "%"},
      {"measurement": "remaining activity at 200 µM", "setting": "[4]; 200 μM compound", "value": "~0", "unit": "%"},
      {"measurement": "percent of catalytic activity of the Kinase in the presence of compound as compared to the solvent control (DMSO): SGK", "setting": "[5]; 50 μM compound", "value": "weak inhib."},
      {"measurement": "remaining activity at 200 µM", "setting": "[5]; 200 μM compound, read-out: percent of catalytic activity of the Kinase in the presence of compound as compared to the solvent control (DMSO): SGK", "value": "~20", "unit": "%"},
      {"measurement": "percent of catalytic activity of the Kinase in the presence of compound as compared to the solvent control (DMSO): PRK2", "setting": "[6]; 50 μM compound", "value": "no effect"},
      {"measurement": "percent of catalytic activity of the Kinase in the presence of compound as compared to the solvent control (DMSO): PRK2", "setting": "[6]; 200 μM compound", "value": "no effect"},
      {"measurement": "percent of catalytic activity of the Kinase in the presence of compound as compared to the solvent control (DMSO): S6K", "setting": "[7]; 50 μM compound", "value": "no effect"},
      {"measurement": "remaining activity at 200 µM", "setting": "[7]; 200 μM compound, read-out: percent of catalytic activity of the Kinase in the presence of compound as compared to the solvent control (DMSO): S6K", "value": "~60", "unit": "%"},
      {"measurement": "percent of catalytic activity of the Kinase in the presence of compound as compared to the solvent control (DMSO): PKBβ", "setting": "[8]; 50 μM compound", "value": "no effect"},
      {"measurement": "remaining activity at 200 µM", "setting": "[8]; 200 μM compound, read-out: percent of catalytic activity of the Kinase in the presence of compound as compared to the solvent control (DMSO): PKBβ", "value": "~80", "unit": "%"},
      {"measurement": "percent of catalytic activity of the Kinase in the presence of compound as compared to the solvent control (DMSO): PKA", "setting": "[9]; 50 μM compound", "value": "no effect"},
      {"measurement": "remaining activity at 200 µM", "setting": "[9]; 200 μM compound, read-out: percent of catalytic activity of the Kinase in the presence of compound as compared to the solvent control (DMSO): PKA", "value": "~60", "unit": "%"}
    ]},
    {"smiles": "O=C(O)/C=C(/CCc1ccc(Br)cc1F)c1ccccc1", "note": "[PS-T8, (Z)-5-(4-Bromo-2-fluorophenyl)-3-phenylpent-2-enoic acid]", "values": [
      {"measurement": "maximum fluorescence intensity of TNP-ATP", "setting": "[3]; 167 μM compound, % of the maximal fluorescence intensity of TNP-ATP obtained with 15 μM PDK1 CD", "value": 60, "unit": "%"},
      {"measurement": "TNP-ATP fluorescence intensity in the presence of PDK1", "setting": "[3]", "value": "concentration-dependent decrease"}
    ]},
    {"smiles": "CO[C@H]1C[C@@H]2CC[C@@H](C)[C@@](O)(O2)C(=O)C(=O)N2CCCC[C@H]2C(=O)O[C@H]([C@H](C)C[C@@H]2CC[C@@H](O)[C@H](OC)C2)CC(=O)[C@H](C)/C=C(\\C)[C@@H](O)[C@@H](OC)C(=O)[C@H](C)C[C@H](C)/C=C/C=C/C=C/1C", "note": "[rapamycin, reference compound]", "values": [
      {"measurement": "EC50", "setting": "[2]; Homo sapiens, PC-3, PC3 cells, control drug", "value": "~1", "unit": "µM"}
    ]}
  ]
}
